In assay [1] the test system is MDA-MB-231. In words: cells. To be noted: Homo sapiens, MDA-MB-231, 24 h.
Description: Antiproliferative activity against human MDA-MB-231 cells assessed as reduction in cell viability incubated for 24 hrs by MTT assay
The subject of assay [2] is MDA-MB-231. In words: Induction of autophagy in human MDA-MB-231 cells assessed as MDC positive ratio at 1 uM incubated for 6 hrs by MDC staining based flow cytometry analysis. The format is functional.
The next assay concerns A549. In words: cells. Particulars: Homo sapiens, A549, 24 h.
A further assay has as its system MDA-MB-468. Kind of assay: cells. To be noted: Homo sapiens, MDA-MB-468, 24 h.
Assay [3] concerns the target Serine/threonine-protein kinase mTOR (Homo sapiens, UniProt P42345). In words: Inhibition of mTOR (unknown origin).

Description for A549: Antiproliferative activity against human A549 cells assessed as reduction in cell viability incubated for 24 hrs by MTT assay
Description for MDA-MB-468: Antiproliferative activity against human MDA-MB-468 cells assessed as reduction in cell viability incubated for 24 hrs by MTT assay

Turning to `CO[C@H]1C[C@@H]2CC[C@@H](C)[C@@](O)(O2)C(=O)C(=O)N2CCCC[C@H]2C(=O)O[C@H]([C@H](C)C[C@@H]2CC[C@@H](OC(=O)C(C)(CO)CO)[C@H](OC)C2)CC(=O)[C@H](C)/C=C(\C)[C@@H](O)[C@@H](OC)C(=O)[C@H](C)C[C@H](C)/C=C/C=C/C=C/1C` [TEMSIROLIMUS], the IC50 (commonly the concentration that inhibits the measured activity by half) is 17.6 µM in the assay on MDA-MB-231 [1], 11.8 µM with A549, 10.9 µM in the assay with MDA-MB-468 and 2.29 µM in assay [3]. Also, the Activity in the assay on MDA-MB-231 [2] is 15.33%.

As for `C/C(=N\NC(=O)c1ccc(C)c(F)c1)c1ccc(C(=O)Nc2cc(N3CCOCC3)ccn2)cc1`, the IC50 with MDA-MB-231 [1] turned out to be 13.2 µM; in the assay with A549, 13.9 µM; with MDA-MB-468, 12.1 µM; in assay [3] it was 3.83 µM. Besides, the Activity in the assay on MDA-MB-231 [2] is 19.22%.

As to `O=C(NCc1ccc(O)cc1)Nc1ccc(C(F)(F)F)cc1`, the IC50 in the assay with MDA-MB-231 [1] was determined as 22.9 µM; in the assay on A549 it was 36.7 µM; with MDA-MB-468, 17.5 µM; in assay [3], 10.3 µM. In addition, the Activity with MDA-MB-231 [2] is reported as 8.29%.

With `C/C(=N\NC(=O)c1cccc(I)c1)c1ccc(N)cc1`, the IC50 stood at 13.1 µM with MDA-MB-231 [1], 13 µM in the assay on A549, 8.3 µM in the assay on MDA-MB-468 and 4.79 µM in assay [3]. In the assay on MDA-MB-231 [2], the Activity is 15.27%.

Take `O=C(Nc1cccc(F)c1)Nc1nc2ccccc2[nH]1`: the IC50 with MDA-MB-231 [1] was found to be 19 µM; in the assay with A549, 19.8 µM; in the assay on MDA-MB-468, 24.1 µM; in assay [3], 4.93 µM. Also, the Activity with MDA-MB-231 [2] is given as 8.32%.

Turning to `O=C(Nc1ccc(C(F)(F)F)cc1)Nc1cccc(F)c1`, the 50% inhibitory concentration (IC50) in the assay on MDA-MB-231 [1] turned out to be 10.3 µM; in the assay with A549, 11.5 µM; in the assay with MDA-MB-468, 11.9 µM; in assay [3] it was 12.6 µM. Also, the Activity in the assay with MDA-MB-231 [2] came out at 7.22%.

As to `C/C(=N\NC(=O)c1ccc(C)c(I)c1)c1ccc(N)cc1`, the IC50 in the assay on MDA-MB-231 [1] turned out to be 8.46 µM; in the assay on A549, 9.93 µM; with MDA-MB-468, 9.54 µM; in assay [3] it was 5.08 µM. In addition, the Activity in the assay on MDA-MB-231 [2] was 14.28%.

For the compound `C/C(=N\NC(=O)c1ccc(C)c(Br)c1)c1ccc(O)cc1`, the IC50 was determined as 6.71 µM in the assay with MDA-MB-231 [1], 10.1 µM with A549, 8.46 µM with MDA-MB-468 and 2.01 µM in assay [3]. Further, the Activity in the assay on MDA-MB-231 [2] is 19.27%.

`C/C(=N\NC(=O)c1cccc(Br)c1)c1ccc(N)cc1`: the half-inhibitory concentration (IC50) with MDA-MB-231 [1] amounted to 10.9 µM; in the assay on A549, 13 µM; in the assay on MDA-MB-468, 13.1 µM; in assay [3], 6.21 µM. In the assay with MDA-MB-231 [2], the Activity is reported as 15.81%.

On to `CN(Cc1ccccc1)C(=O)Nc1ccc(C(F)(F)F)cc1`, for which the IC50 in the assay on MDA-MB-231 [1] amounted to 21.2 µM; in the assay with A549 it was 28.8 µM; with MDA-MB-468, 21.9 µM; in assay [3] it was 10.1 µM. In addition, in the assay with MDA-MB-231 [2], the Activity is reported as 7.34%.

For the compound `O=C(Nc1ccc(C(F)(F)F)cc1)Nc1nc2ccccc2[nH]1`, the IC50 with MDA-MB-231 [1] is 22.8 µM; in the assay on A549, 23.5 µM; with MDA-MB-468 it was 23.7 µM; in assay [3], 23.7 µM. For the same compound, the Activity in the assay with MDA-MB-231 [2] is 8.2%.

For the origin of these results see ChEMBL document CHEMBL4819087, “Identification and optimization of 3-bromo-N'-(4-hydroxybenzylidene)-4-methylbenzohydrazide derivatives as mTOR inhibitors that induce autophagic cell death and apoptosis in triple-negative breast cancer” (Eur J Med Chem, 2021).
